# Reference: patent US11518981B2, “Methods of enhancing engraftment activity of hematopoietic stem cells” (CHILDREN'S HOSPITAL MEDICAL CENTER, priority 2017, dated 2022)
# Test system: CD34^+38^−90^+ HSCs
# Test: ROS measurement (MITOSOX / CM-H2DCFDA) in HSCs
# Assay type: cell-based, human
# Settings: MITOSOX in CD34^+38^−90^+ cells
# Method: Freshly isolated CD34^+ cells were used, wherever possible, and especially for 0 h controls. In some experiments cryopreserved CD34^+ cells were thawed for 4 hrs in IMDM containing cytokines, then washed and used for experiments. CD34^+ cells were transduced in X-VIVO 10™ (Lonza) medium supplemented with 2% human serum albumin (Baxter), recombinant human Flt-3 ligand (Flt3-L; 200 ng/mL), stem cell factor (SCF; 300 ng/mL), thrombopoietin (TPO; 100 ng/mL) (all cytokines obtained from PeproTech), and penicillin-streptomycin (ThermoFisher Scientific) on non-tissue culture treated plates coated with retronectin (4 μg/cm2, CH-296, Takara Bio Inc.). […]
# PE-Cyanine 7 or APC-EFLUOR® 780, APC- or PE-conjugated antibodies directed to human CD34 (BD Biosciences 560710 or 555824), CD38 (eBiosciences, San Diego, Calif. 47-0389-42), CD90 (BioLegend 328120), CD45RA (eBiosciences 17-0458-42), CD49f (BD Biosciences 555736), CD45 (BD 55485 or Biolegend 304026), CD33 (eBiosciences 25-0338-42), CD19 (BD Biosciences 557791), or CD3 (BD Biosciences 555340). […] Total ROS and mitochondrial specific ROS were detected using 10 μM CM-H2DCFDA (ThermoFisher Scientific C6827) and 5 μM MITOSOX™ Red (Red Mitochondrial Superoxide Indicator) (ThermoFisher Scientific M36008) respectively, following manufacturer's instructions.
smiles,measurement,value
"Cc1ccc(-n2nc(C(C)(C)C)cc2NC(=O)Nc2ccc(OCCN3CCOCC3)c3ccccc23)cc1 [p38i, 1-[5-tert-butyl-2-(4-methylphenyl)pyrazol-3-yl]-3-[4-(2-morpholin-4-ylethoxy)naphthalen-1-yl]urea]",ROS levels in the HSC compartment,no difference
